Active and inactive are the calls of the source. The calls are words filed in the database; no cut-off is given here.
Tests used:
Caspase-1 (Homo sapiens) [1] = biological target: T1, Caspase-1 (Homo sapiens) (UniProt P29466); experiment: Inhibition of caspase 1 by Z-Asp-CH2DCB released from compound using […] substrate after 2 mins in presence of human neutrophil elastase
T1 sequence (whole entry): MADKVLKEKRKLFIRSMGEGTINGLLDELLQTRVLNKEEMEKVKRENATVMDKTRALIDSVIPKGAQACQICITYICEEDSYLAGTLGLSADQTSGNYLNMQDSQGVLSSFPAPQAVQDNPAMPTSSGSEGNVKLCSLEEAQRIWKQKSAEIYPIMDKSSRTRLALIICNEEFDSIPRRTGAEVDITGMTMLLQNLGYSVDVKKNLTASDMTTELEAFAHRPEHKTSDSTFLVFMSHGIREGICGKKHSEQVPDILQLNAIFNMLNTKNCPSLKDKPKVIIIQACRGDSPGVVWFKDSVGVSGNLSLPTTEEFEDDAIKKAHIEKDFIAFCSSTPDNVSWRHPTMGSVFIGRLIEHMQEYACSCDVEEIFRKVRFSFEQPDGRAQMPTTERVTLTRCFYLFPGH

[2] = biological target: T2, Neutrophil elastase (Homo sapiens) (UniProt P08246); experiment: Inhibition of human neutrophil elastase assessed as remaining activity using MeOSuc-AAPV-pNA substrate at 10.5 uM; details: TDE = time-dependent effect
T2 sequence (whole entry): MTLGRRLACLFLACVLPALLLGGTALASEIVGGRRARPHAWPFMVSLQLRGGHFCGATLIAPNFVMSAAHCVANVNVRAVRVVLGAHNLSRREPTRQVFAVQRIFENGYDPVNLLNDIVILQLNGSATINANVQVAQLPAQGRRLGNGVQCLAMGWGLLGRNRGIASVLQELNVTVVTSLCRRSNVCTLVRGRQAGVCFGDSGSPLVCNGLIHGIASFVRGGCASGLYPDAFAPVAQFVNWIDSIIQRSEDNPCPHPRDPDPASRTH

[3] = biological target: T3, Myeloblastin (Homo sapiens) (UniProt P24158); experiment: Inhibition of proteinase 3 after 30 mins
T3 sequence (whole entry): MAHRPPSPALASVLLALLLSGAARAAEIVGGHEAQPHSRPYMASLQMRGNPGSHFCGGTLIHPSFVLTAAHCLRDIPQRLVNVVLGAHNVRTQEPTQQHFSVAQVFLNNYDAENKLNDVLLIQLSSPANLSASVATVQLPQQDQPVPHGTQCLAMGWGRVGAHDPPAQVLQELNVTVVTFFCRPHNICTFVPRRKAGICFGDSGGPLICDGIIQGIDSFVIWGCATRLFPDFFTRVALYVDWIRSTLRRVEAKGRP

Caspase-1 (Homo sapiens) [4] = biological target: T1, Caspase-1 (Homo sapiens); experiment: Inhibition of caspase 1 using […] substrate

inhibition (Caspase-1 (Homo sapiens) [1]): Active | inhibition [2]: tde | inhibition [3]: inactive | inhibition (Caspase-1 (Homo sapiens) [4]): inactive
Compound: CCC[C@H]1C(=O)N(COC(=O)C[C@H](NC(=O)OCc2ccccc2)C(=O)COC(=O)c2c(Cl)cccc2Cl)S(=O)(=O)N1C
